In PubChem BioAssay (NCI):
Where “and” joins values, the source holds several entries; their conditions need not be identical. Equal entries are not always repeated.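 Following 48 hours of exposure in 96-well plates, responses at five concentrations were used to interpolate endpoints linearly. At the GI50, growth is halved. The concentration for full growth arrest is given as TGI.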

Key:
Assay in all cases: inhibition of tumour cell growth, NCI panel, 48 h
[1] = tested on: CCRF-CEM leukemia
[2] = tested on: NCI-H522 lung
[3] = tested on: OVCAR-5 ovarian
[4] = tested on: PC-3 prostate
[5] = tested on: SN12C renal
[6] = tested on: SNB-19 CNS
[7] = tested on: SNB-75 CNS
[8] = tested on: CAKI-1 renal
[9] = tested on: EKVX NSCLC
[10] = tested on: SR leukemia

Structure (SMILES)	TGI [1]	TGI [2]	TGI [3]	TGI [4]	TGI [5]	TGI [6]	TGI [7]	TGI [8]	TGI [9]	TGI [10]	GI50 [3]	GI50 [6]	GI50 [7]
NS(=O)(=O)c1cccc(NC(=S)NC(=O)Nc2ccc(Cl)c(Cl)c2)c1	78.1 µM	28.6 µM	84 µM	41.2 µM	32.6 µM	58.2 µM	54.9 µM	–	–	–	–	–	–
CCCCn1c(-c2ccc([N+](=O)[O-])cc2)cs/c1=N/N=C1\C(=O)Nc2ccc(Br)cc21	> 100 µM	36.7 µM	> 100 µM	–	11.4 µM	69.3 µM	59.8 µM	63.2 µM	79.3 µM	–	–	–	–
CC1(C)[C@H]2CC[C@@]13C(=O)N1C(=O)O[C@@H]([C@H]1Cl)C(Cl)(COCc1ccccc1)C(=O)OCCO[C@H]3C2 (stereo partly specified)	> 100 µM	> 100 µM	> 100 µM	> 100 µM	–	> 100 µM	> 100 µM	> 100 µM	> 100 µM	> 100 µM	–	–	–
Cc1c2c(OCC3CCCCO3)nn(C)c(=O)c2c(C)n1-c1ccccc1 (stereo unspecified)	–	34.9 µM	35.9 µM	36 µM	40.6 µM	46.8 µM	32 µM	59 µM	33.2 µM	–	–	–	–
C\C(=N/N=C1/C(=C\N(C)C)C(=O)NC(=O)N1C)c1ccc(Cl)cc1	> 100 µM	> 100 µM	> 100 µM	> 100 µM	> 100 µM	> 100 µM	> 100 µM	> 100 µM	> 100 µM	–	–	–	–
COc1nc(C#CC(C)(C)C)nc(OC)n1	–	49.3 µM	42.5 µM	> 100 µM	79 µM	> 100 µM	> 100 µM	51.9 µM	> 100 µM	79.3 µM	–	–	–
COC(=O)C1=Nc2c(C)nn(-c3ccccc3)c2N=C(c2ccccc2)C1	–	> 10 µM	> 10 µM	> 10 µM	> 10 µM	> 10 µM	> 10 µM	> 10 µM	–	> 10 µM	–	–	–
CCC(C(=O)C(=O)OC)P1(=O)OC(C)(C)CN1C(C)(C)C (stereo unspecified)	–	–	> 100 µM	> 100 µM	–	> 100 µM	> 100 µM	> 100 µM	> 100 µM	> 100 µM	–	–	–
CCOC(=O)/C(O)=C1\C(=O)N(C)C(=O)C1c1cccc(OC)c1 (stereo unspecified)	> 100 µM	> 100 µM	> 100 µM	–	> 100 µM	> 100 µM	> 100 µM	> 100 µM	> 100 µM	–	–	–	–
CC(=O)OC1CCC2C3CCc4c(C)ccc(OS(=O)(=O)c5ccccc5)c4C3CCC12C (stereo unspecified)	> 100 µM	> 100 µM	> 100 µM	> 100 µM	> 100 µM	> 100 µM	–	> 100 µM	> 100 µM	> 100 µM	–	–	–
C1=C\SS/C=C\SS/1	7.09 µM	–	> 100 µM	> 100 µM	> 100 µM	> 100 µM	–	–	> 100 µM	> 100 µM	–	–	–
O=c1cc(-c2cc(O)c(O)c(-c3c(O)cc4oc(-c5ccc(O)c(O)c5)cc(=O)c4c3O)c2)oc2cc(O)cc(O)c12	> 25 µM	–	> 25 µM	> 25 µM	> 25 µM	–	> 25 µM	> 25 µM	> 25 µM	> 25 µM	–	–	–
N#Cc1nc(NC(=O)c2ccccc2C(=O)O)c(C#N)[nH]1	> 100 µM	> 100 µM	> 100 µM	> 100 µM	> 100 µM	> 100 µM	> 100 µM	> 100 µM	> 100 µM	–	–	–	–
CCOP(=O)(/C=C\n1ccc(N)nc1=O)OCC	> 100 µM	> 100 µM	> 100 µM	> 100 µM	> 100 µM	> 100 µM	> 100 µM	> 100 µM	> 100 µM	–	–	–	–
COCCOCCOC1=CC(=O)c2c(O)ccc(O)c2C1=O	4.48 µM	2.93 µM	–	6.73 µM	3.8 µM	3.28 µM	3.28 µM	2.04 µM	7.54 µM	5.03 µM	–	–	–
CCCSc1nc(-c2ccc(OC)cc2)c(C#N)c(=O)n1C1OC(COC(C)=O)C(OC(C)=O)C(OC(C)=O)C1OC(C)=O (stereo unspecified)	> 100 µM	> 100 µM	> 100 µM and 48.8 µM	–	–	> 100 µM	> 100 µM	–	–	> 100 µM	> 100 µM and 21.2 µM	> 100 µM and 45.4 µM	–
COC(=O)/C(C#N)=C(/NCCN)Nc1ccccc1	–	> 100 µM	> 100 µM	> 100 µM	> 100 µM	> 100 µM	> 100 µM	> 100 µM	> 100 µM	> 100 µM	–	–	–
CC(=O)c1cnc2oc3ccc(O)cc3c2c1-c1ccccc1	> 100 µM	–	> 100 µM	> 100 µM	> 100 µM	> 100 µM	22 µM	> 100 µM	> 100 µM	> 100 µM	–	–	2.57 µM
